Measured values: patent US7138361B2, “Herbicidal heterocycles” (E. I. du Pont de Nemours and Company, priority 2000, dated 2006)

Experiments:
Format in all cases: in vivo
[1] = system: Surinam grass (Brachiaria decumbens); test: Test B postemergence
Outline: (§1)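 Visual injury scores, 0 = no effect to 100 = complete control, assigned against controls after 13 to 15 days in the greenhouse. Compounds formulated in non-phytotoxic solvent plus surfactant and applied to soil after planting (pre) or onto foliage of 1- to 4-leaf plants (post).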

[2] = system: barnyardgrass (Echinochloa crus-galli); test: Test B postemergence
Outline: as §1

[3] = system: blackgrass (Alopecurus myosuroides); test: Test B postemergence
Outline: as §1

corn (Zea mays) [4] = test: Test B postemergence
Outline: as §1

[5] = system: crabgrass (Digitaria sanguinalis); test: Test B postemergence
Outline: as §1

[6] = system: giant foxtail (Setaria faberii); test: Test B postemergence
Outline: as §1

[7] = system: lambsquarters (Chenopodium album); test: Test B postemergence
Outline: as §1

[8] = system: morning glory (Ipomoea hederacea); test: Test B postemergence
Outline: as §1

[9] = system: pigweed (Amaranthus retroflexus); test: Test B postemergence
Outline: as §1

[10] = system: velvetleaf (Abutilon theophrasti); test: Test B postemergence
Outline: as §1

[11] = system: wheat (Triticum aestivum); test: Test B postemergence
Outline: as §1

wild oat (Avena fatua) = test: Test B postemergence
Outline: as §1

[12] = system: Surinam grass (Brachiaria decumbens); test: Test B preemergence
Outline: as §1

[13] = system: barnyardgrass (Echinochloa crus-galli); test: Test B preemergence
Outline: as §1

[14] = system: cocklebur (Xanthium strumarium); test: Test B preemergence
Outline: as §1

corn (Zea mays) [15] = test: Test B preemergence
Outline: as §1

[16] = system: crabgrass (Digitaria sanguinalis); test: Test B preemergence
Outline: as §1

[17] = system: giant foxtail (Setaria faberii); test: Test B preemergence
Outline: as §1

[18] = system: lambsquarters (Chenopodium album); test: Test B preemergence
Outline: as §1

[19] = system: morning glory (Ipomoea hederacea); test: Test B preemergence
Outline: as §1

[20] = system: pigweed (Amaranthus retroflexus); test: Test B preemergence
Outline: as §1

rice (Oryza saliva) = test: Test B preemergence
Outline: as §1

[21] = system: velvetleaf (Abutilon theophrasti); test: Test B preemergence
Outline: as §1

Nightshade = test: Test C preemergence; conditions: Rate 500 g/ha, visual evaluation after 12 to 14 days
Sunflower = test: Test C preemergence; conditions: Rate 250 g/ha, scale 0 to 100, 0 no effect, 100 complete control
[22] = system: cocklebur (Xanthium strumarium); test: Test B postemergence
Outline: as §1

[23] = Rate 125 g/ha, scale 0 (no effect) to 100 (complete control), 13 to 15 days
[24] = Rate 500 g/ha, scale 0 to 100, 0 is no effect, 100 is complete control, 13 to 15 days
[25] = Preemergence, Rate 500 g/ha, scale 0 to 100, 0 no effect, 100 complete control
[26] = preemergence, Rate 125 g/ha, scale of 0 to 100 where 0 is no effect and 100 is complete control, 13 to 15 days
[27] = Rate 125 g/ha, scale 0 to 100, 0 no effect, 100 complete control

## CCCC(C)c1ccn(C2CCN(c3cccc(OC)c3)C2=O)n1 (stereo not shown) [Compound 99]
[1]; [23]
  Plant response rating, Surinam grass: 0
[1]; [24]
  Plant response rating, Surinam grass: 0
[2]; [23]
  Plant response rating, Barnyardgrass: 0
[2]; [24]
  Plant response rating, Barnyardgrass: 0
[3]; [23]
  Plant response rating, Blackgrass: 0
[3]; [24]
  Plant response rating, Blackgrass: 0
Corn (Zea mays) [4]; [23]
  Plant response rating, Corn: 0
Corn (Zea mays) [4]; [24]
  Plant response rating, Corn: 0
[5]; [23]
  Plant response rating, Crabgrass: 0
[5]; [24]
  Plant response rating, Crabgrass: 0
[6]; [23]
  Plant response rating, Foxtail, Giant: 0
[6]; [24]
  Plant response rating, Foxtail, Giant: 0
[7]; [24]
  Plant response rating, Lambsquarters: 70
[8]; [24]
  Plant response rating, Morningglory: 0
[9]; [24]
  Plant response rating, Pigweed: 0
[10]; [24]
  Plant response rating, Velvetleaf: 0
[11]; [24]
  Plant response rating, Wheat: 0
Wild oat (Avena fatua); [24]
  Plant response rating, Wild Oat: 0
[12]; [25]
  Plant response rating, Surinam grass: 20
[12]; [26]
  Plant response rating, Surinam grass: 0
[13]; [25]
  Plant response rating, Barnyardgrass: 100
[13]; [26]
  Plant response rating, Barnyardgrass: 0
[14]; [25]
  Plant response rating, Cocklebur: 0
[14]; [26]
  Plant response rating, Cocklebur: 0
Corn (Zea mays) [15]; [25]
  Plant response rating, Corn: 30
Corn (Zea mays) [15]; [26]
  Plant response rating, Corn: 0
[16]; [25]
  Plant response rating, Crabgrass: 100
[16]; [26]
  Plant response rating, Crabgrass: 0
[17]; [25]
  Plant response rating, Foxtail, Giant: 100
[17]; [26]
  Plant response rating, Foxtail, Giant: 0
[18]; [25]
  Plant response rating, Lambsquarters: 100
[18]; [26]
  Plant response rating, Lambsquarters: 100
[19]; [25]
  Plant response rating, Morningglory: 0
[19]; [26]
  Plant response rating, Morningglory: 0
[20]; [25]
  Plant response rating, Pigweed: 100
[20]; [26]
  Plant response rating, Pigweed: 0
Rice (Oryza saliva); [25]
  Plant response rating, Rice: 20
Rice (Oryza saliva); [26]
  Plant response rating, Rice: 0
[21]; [25]
  Plant response rating, Velvetleaf: 0
[21]; [26]
  Plant response rating, Velvetleaf: 0
Nightshade
  Plant response rating (0 to 100), Nightshade: 10
Sunflower
  Plant response rating, Sunflower: 0

## CCCC(C)c1ccn(C2CCN(c3cccc(C(F)(F)F)c3)C2=O)n1 (stereo not shown) [Compound 100]
[1]; [23]
  Plant response rating, Surinam grass: 0
[1]; [24]
  Plant response rating, Surinam grass: 0
[2]; [23]
  Plant response rating, Barnyardgrass: 0
[2]; [24]
  Plant response rating, Barnyardgrass: 0
[3]; [23]
  Plant response rating, Blackgrass: 0
[3]; [24]
  Plant response rating, Blackgrass: 0
Corn (Zea mays) [4]; [23]
  Plant response rating, Corn: 0
Corn (Zea mays) [4]; [24]
  Plant response rating, Corn: 0
[5]; [23]
  Plant response rating, Crabgrass: 0
[5]; [24]
  Plant response rating, Crabgrass: 0
[6]; [23]
  Plant response rating, Foxtail, Giant: 0
[6]; [24]
  Plant response rating, Foxtail, Giant: 0
[7]; [24]
  Plant response rating, Lambsquarters: 80
[8]; [24]
  Plant response rating, Morningglory: 0
[9]; [24]
  Plant response rating, Pigweed: 0
[10]; [24]
  Plant response rating, Velvetleaf: 0
[11]; [24]
  Plant response rating, Wheat: 0
Wild oat (Avena fatua); [24]
  Plant response rating, Wild Oat: 0
[12]; [25]
  Plant response rating, Surinam grass: 20
[12]; [26]
  Plant response rating, Surinam grass: 0
[13]; [25]
  Plant response rating, Barnyardgrass: 100
[13]; [26]
  Plant response rating, Barnyardgrass: 0
[14]; [25]
  Plant response rating, Cocklebur: 0
[14]; [26]
  Plant response rating, Cocklebur: 0
Corn (Zea mays) [15]; [25]
  Plant response rating, Corn: 20
Corn (Zea mays) [15]; [26]
  Plant response rating, Corn: 0
[16]; [25]
  Plant response rating, Crabgrass: 100
[16]; [26]
  Plant response rating, Crabgrass: 0
[17]; [25]
  Plant response rating, Foxtail, Giant: 70
[17]; [26]
  Plant response rating, Foxtail, Giant: 0
[18]; [25]
  Plant response rating, Lambsquarters: 100
[18]; [26]
  Plant response rating, Lambsquarters: 100
[19]; [25]
  Plant response rating, Morningglory: 0
[19]; [26]
  Plant response rating, Morningglory: 0
[20]; [25]
  Plant response rating, Pigweed: 100
[20]; [26]
  Plant response rating, Pigweed: 70
Rice (Oryza saliva); [25]
  Plant response rating, Rice: 20
Rice (Oryza saliva); [26]
  Plant response rating, Rice: 0
[21]; [25]
  Plant response rating, Velvetleaf: 0
[21]; [26]
  Plant response rating, Velvetleaf: 0
Nightshade
  Plant response rating (0 to 100), Nightshade: 0
Sunflower
  Plant response rating, Sunflower: 0

## Cc1ccc(N2CCC(n3ccc(C(C)(C)C)n3)C2=O)cc1I (stereo not shown) [Compound 122]
[1]; [27]
  Plant response rating, Surinam grass: 0
[1]; [24]
  Plant response rating, Surinam grass: 0
[2]; [27]
  Plant response rating, Barnyardgrass: 0
[2]; [24]
  Plant response rating, Barnyardgrass: 0
[22]; [27]
  Plant response rating, Cocklebur: 30
[22]; [24]
  Plant response rating, Cocklebur: 90
Corn (Zea mays) [4]; [27]
  Plant response rating, Corn: 0
Corn (Zea mays) [4]; [24]
  Plant response rating, Corn: 0
[6]; [27]
  Plant response rating, Foxtail, Giant: 0
[7]; [27]
  Plant response rating, Lambsquarters: 90
[8]; [27]
  Plant response rating, Morningglory: 20
[9]; [27]
  Plant response rating, Pigweed: 30
[10]; [27]
  Plant response rating, Velvetleaf: 0
[11]; [27]
  Plant response rating, Wheat: 0
Wild oat (Avena fatua); [27]
  Plant response rating, Wild Oat: 0
[12]; [25]
  Plant response rating, Surinam grass: 70
[12]; [26]
  Plant response rating, Surinam grass: 50
[13]; [25]
  Plant response rating, Barnyardgrass: 100
[13]; [26]
  Plant response rating, Barnyardgrass: 0
[14]; [25]
  Plant response rating, Cocklebur: 0
[14]; [26]
  Plant response rating, Cocklebur: 0
Corn (Zea mays) [15]; [25]
  Plant response rating, Corn: 0
Corn (Zea mays) [15]; [26]
  Plant response rating, Corn: 0
[16]; [25]
  Plant response rating, Crabgrass: 100
[16]; [26]
  Plant response rating, Crabgrass: 100
[17]; [25]
  Plant response rating, Foxtail, Giant: 30
[17]; [26]
  Plant response rating, Foxtail, Giant: 20
[18]; [25]
  Plant response rating, Lambsquarters: 100
[18]; [26]
  Plant response rating, Lambsquarters: 100
[19]; [25]
  Plant response rating, Morningglory: 0
[19]; [26]
  Plant response rating, Morningglory: 0
[20]; [25]
  Plant response rating, Pigweed: 100
[20]; [26]
  Plant response rating, Pigweed: 100
Rice (Oryza saliva); [25]
  Plant response rating, Rice: 0
Rice (Oryza saliva); [26]
  Plant response rating, Rice: 0
[21]; [25]
  Plant response rating, Velvetleaf: 0
[21]; [26]
  Plant response rating, Velvetleaf: 0
Nightshade
  Plant response rating (0 to 100), Nightshade: 90
Sunflower
  Plant response rating, Sunflower: 0

## CC(C)OC(=O)c1cccc(N2CCC(n3ccc(C(C)(C)C)n3)C2=O)c1 (stereo not shown) [Compound 124]
[1]; [27]
  Plant response rating, Surinam grass: 0
[1]; [24]
  Plant response rating, Surinam grass: 0
[2]; [27]
  Plant response rating, Barnyardgrass: 0
[2]; [24]
  Plant response rating, Barnyardgrass: 0
[3]; [27]
  Plant response rating, Blackgrass: 0
[22]; [27]
  Plant response rating, Cocklebur: 20
[22]; [24]
  Plant response rating, Cocklebur: 90
Corn (Zea mays) [4]; [27]
  Plant response rating, Corn: 0
Corn (Zea mays) [4]; [24]
  Plant response rating, Corn: 0
[5]; [27]
  Plant response rating, Crabgrass: 0
[6]; [27]
  Plant response rating, Foxtail, Giant: 0
[7]; [27]
  Plant response rating, Lambsquarters: 20
[8]; [27]
  Plant response rating, Morningglory: 0
[9]; [27]
  Plant response rating, Pigweed: 0
[10]; [27]
  Plant response rating, Velvetleaf: 0
[11]; [27]
  Plant response rating, Wheat: 0
Wild oat (Avena fatua); [27]
  Plant response rating, Wild Oat: 0
[12]; [25]
  Plant response rating, Surinam grass: 40
[12]; [26]
  Plant response rating, Surinam grass: 0
[13]; [25]
  Plant response rating, Barnyardgrass: 100
[13]; [26]
  Plant response rating, Barnyardgrass: 70
[14]; [25]
  Plant response rating, Cocklebur: 0
[14]; [26]
  Plant response rating, Cocklebur: 0
Corn (Zea mays) [15]; [25]
  Plant response rating, Corn: 0
Corn (Zea mays) [15]; [26]
  Plant response rating, Corn: 0
[16]; [25]
  Plant response rating, Crabgrass: 100
[16]; [26]
  Plant response rating, Crabgrass: 30
[17]; [25]
  Plant response rating, Foxtail, Giant: 100
[17]; [26]
  Plant response rating, Foxtail, Giant: 50
[18]; [25]
  Plant response rating, Lambsquarters: 100
[18]; [26]
  Plant response rating, Lambsquarters: 100
[19]; [25]
  Plant response rating, Morningglory: 60
[19]; [26]
  Plant response rating, Morningglory: 0
[20]; [25]
  Plant response rating, Pigweed: 100
[20]; [26]
  Plant response rating, Pigweed: 80
Rice (Oryza saliva); [25]
  Plant response rating, Rice: 0
Rice (Oryza saliva); [26]
  Plant response rating, Rice: 0
[21]; [25]
  Plant response rating, Velvetleaf: 0
[21]; [26]
  Plant response rating, Velvetleaf: 0
Sunflower
  Plant response rating, Sunflower: 0
